The values that follow are results of earlier work, collected in patent US10702606B2, “Peptide composition” (MENICON CO., LTD., priority 2015, dated 2020).

Read-outs that look alike come from different tables or passages of the source.

For the compound `NCCN` [Ethylenediamine, ethylenediamine], the pKa (commonly the negative logarithm of the acid dissociation constant) is, setting by setting: (25° C., only a pKa of 3.5 or more and less than 7.5 is described) 7.1; (buffering agent, temperature not given) 7.1.
